The text below walks through data of ChEMBL document CHEMBL1141113, “High affinity electrophilic and photoactivatable covalent endocannabinoid probes for the CB1 receptor” (J Med Chem, 2005).

One assay has as its target Cannabinoid receptor 2 (Mus musculus, UniProt P47936). In words: Binding affinity towards mouse spleen cannabinoid receptor 2 in the presence of PMSF upon incubation for 15 min at 4 degree C in pH 7.4 using [3H]CP-55940. The format is tissue-based.
Another assay addresses Cannabinoid receptor 1 (Rattus norvegicus, UniProt P20272). In words: Binding affinity towards rat brain cannabinoid receptor 1 in the presence of PMSF upon incubation for 15 min at 4 degree C in pH 7.4 using [3H]CP-55940.

Cannabinoid receptor 2, sequence (P47936 whole entry): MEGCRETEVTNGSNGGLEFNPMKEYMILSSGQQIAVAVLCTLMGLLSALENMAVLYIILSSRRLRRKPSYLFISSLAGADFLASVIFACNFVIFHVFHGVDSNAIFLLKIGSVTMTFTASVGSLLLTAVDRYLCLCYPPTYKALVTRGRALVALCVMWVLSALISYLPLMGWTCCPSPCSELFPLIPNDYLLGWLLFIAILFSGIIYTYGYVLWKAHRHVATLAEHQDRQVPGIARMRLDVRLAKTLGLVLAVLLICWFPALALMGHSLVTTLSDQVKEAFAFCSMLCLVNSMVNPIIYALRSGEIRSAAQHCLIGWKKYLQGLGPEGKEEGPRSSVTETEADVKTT
Cannabinoid receptor 1, sequence (P20272 whole entry): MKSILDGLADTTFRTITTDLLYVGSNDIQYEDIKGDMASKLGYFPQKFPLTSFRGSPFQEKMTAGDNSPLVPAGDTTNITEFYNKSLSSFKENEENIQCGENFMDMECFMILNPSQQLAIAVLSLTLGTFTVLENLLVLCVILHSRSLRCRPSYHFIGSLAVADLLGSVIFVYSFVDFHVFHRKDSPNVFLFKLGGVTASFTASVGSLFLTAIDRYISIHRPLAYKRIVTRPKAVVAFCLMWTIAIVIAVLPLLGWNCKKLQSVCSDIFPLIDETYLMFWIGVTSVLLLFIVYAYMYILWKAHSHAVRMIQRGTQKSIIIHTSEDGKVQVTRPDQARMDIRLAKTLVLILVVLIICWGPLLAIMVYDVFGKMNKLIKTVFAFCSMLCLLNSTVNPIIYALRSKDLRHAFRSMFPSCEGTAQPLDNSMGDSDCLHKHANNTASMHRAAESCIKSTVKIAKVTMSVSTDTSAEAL

Regarding `O=C(CCC/C=C\C/C=C\C/C=C\C/C=C\CCCCCN=C=S)NC1CC1`, the Ki on Cannabinoid receptor 2 was determined as 0.0485 µM; on Cannabinoid receptor 1, 0.0013 µM.
Regarding `CCCCC/C=C\C/C=C\C/C=C\C/C=C\CCCC(=O)NC1CC1`, the Ki on Cannabinoid receptor 2 worked out at 0.157 µM; at Cannabinoid receptor 1, 0.0027 µM.

The Ki is a measure of affinity in units of concentration, obtained from inhibition or displacement.
